Assay results as given in US8202871B2, “Indol-2-one derivatives disubstituted in the 3-position, preparation thereof and therapeutic use thereof” (Sanofi-Aventis, priority 2007, dated 2012).

How the values were obtained:
ghrelin receptor = molecular target: T1, ghrelin receptor (Rattus norvegicus, UniProt O08725); experiment: Antagonism of ghrelin on electric-field-stimulated contractions of isolated rat gastric fundus strips (headed 'In Vivo Test'); settings: ghrelin 0.1 nM-1 μM concentration-response curves with and without antagonist, contact time 30 minutes, read-out: antagonist activity towards the ghrelin receptor, IC50
T1 construct: Strips of approximately 1 cm (5 mm wide) of gastric fundus were cut out along the longitudinal axis; from tissue; host or cells: rat gastric fundus strips
Method: The compounds according to the invention underwent in vivo studies.
Male Crl CD BR rats (Charles River, Italy) weighing 150-175 g were housed in a chamber at regulated temperature (22±1° C.) and humidity (55±10%) and with a 12-hour lightness-darkness cycle, for at least 7 days before their use. Feed and water were available ad libitum. The feed was removed 18 hours before sacrificing the animals. The rats were sacrificed by cervical dislocation, and the stomach was removed surgically, opened along the shorter curvature and placed in a Krebs solution (of composition (mM): 118.4 NaCl; 4.7 KCl; 2.5 CaCl2; 3.7 NaH2PO4; 1.2 MgSO4; 25 NaHCO3; 5.6 glucose). The animals were cared for and sacrificed according to the Sanofi-Aventis international code of ethics and the international principles governing the care and treatment of laboratory animals (EEC Directive 86/609, DJL358, 1, 12 Dec. 1987). […] The contractions were recorded by computer with a data recording and analysis system (Power Lab, Chart 5) connected to isotonic transducers (Ugo Basile, Varese, Italy) via preamplifiers (Octal Bridge Amp). […] The pKb values for the antagonists were calculated according to the Cheng-Prusoff equation (Kenakin et al., Competitive Antagonism, Pharmacologic Analysis of Drug-Receptor Interaction, 3rd edition, 331-373, Philadelphia, New York; Raven: Lippincott, 1997).

T1 sequence (O08725 whole entry): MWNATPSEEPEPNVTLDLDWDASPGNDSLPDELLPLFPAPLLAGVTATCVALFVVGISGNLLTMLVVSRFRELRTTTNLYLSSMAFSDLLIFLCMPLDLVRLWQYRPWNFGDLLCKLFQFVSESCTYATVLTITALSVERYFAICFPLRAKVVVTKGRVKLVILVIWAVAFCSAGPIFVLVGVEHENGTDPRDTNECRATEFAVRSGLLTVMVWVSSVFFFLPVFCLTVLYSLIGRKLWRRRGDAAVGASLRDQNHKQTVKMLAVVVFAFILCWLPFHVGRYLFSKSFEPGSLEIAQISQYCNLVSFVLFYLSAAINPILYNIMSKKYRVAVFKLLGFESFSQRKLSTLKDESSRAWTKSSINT

Row | SMILES | IC50 (ghrelin receptor) | melting point
1 | CN1CCN(CC(=O)NC2(c3ccc(Cl)cc3)C(=O)Nc3cc(Cl)c(Cl)cc32)CC1 (single isomer, unassigned; (+)) [Compound 1, (+)-N-[5,6-Dichloro-3-(4-chlorophenyl)-2-oxo-2,3-dihydro-1H-indol-3-yl]-2-(4-methylpiperazin-1-yl)acetamide] | 50 nM | 207.1 to 207.6 °C
2 | CCN1CCC(CC(=O)NC2(c3ccc(C(F)(F)F)cc3)C(=O)Nc3cc(Cl)cc(Cl)c32)CC1 (single isomer, unassigned; (+)) [Compound 2, (+)-N-[4,6-Dichloro-3-(4-trifluoromethylphenyl)-2-oxo-2,3-dihydro-1H-indol-3-yl]-2-(1-ethylpiperid-4-yl)acetamide] | 1 nM | 158 to 162 °C
